Where “and” joins values, the source holds several entries; their conditions need not be identical. Equal entries are not always repeated. Where two headings read alike, the source gives them in different places. Starred links: 1 amine or outer side, 2 acyl side, 3 side chain; linkers in the order of their positions; H or OH if unused. Positions of bridges follow the written chain, without caps; N, C: chain ends. Non-standard residues stand in square brackets, D forms with d. Residues, ends and D or L forms follow the SMILES beside them. *: point of attachment. Orn(4R-OH,5R-OCH2CH2NMe3+) = C[N+](C)(C)CCO[C@@H](N[*:3])[C@H](O)C[C@H](N[*:1])C(=O)[*:2]; pTerphenylCO(4''-OnC5H11) = CCCCCOc1ccc(-c2ccc(-c3ccc(C(=O)*)cc3)cc2)cc1; hTyr(3S-OH,4S-OH) = N[C@H](C(=O)O)[C@H](O)[C@@H](O)c1ccc(O)cc1; Pro(3S-OH,4S-Me) = C[C@H]1CN[C@H](C(=O)O)[C@H]1O; Hyp = O=C(O)[C@@H]1C[C@@H](O)CN1
Assays:
C. albicans NRRL Y-477 [1] = type: cell-based, Candida albicans
Protocol: (§1) Spontaneous mutant selection. […] Three individual colonies from each strain were used to start cultures in RPMI. […] One milliliter aliquots were spread onto SDA plates containing drug with sterile glass beads. Starting viable count was enumerated by triplicate plating of serial dilutions of the starting inoculum. […] Glycerol stocks of putative mutant colonies were stored at −80° C. […] Spontaneous mutation frequencies were calculated by dividing the number of resistant colonies on a given plate by the starting inoculum plated. A subset of mutants (weighted heavily towards those selected with CMP1) were then evaluated by MIC and sequencing of FKS gene hot spot regions.

[2] = system: C. glabrata ATCC 90030, ATCC 2001; type: cell-based, Candida glabrata; details: for Freq. (replicate mutation frequency): replicate plates 1-3, listed as CMP1; for Plate concentration: SDA, minimum concentration to cleanly inhibit growth
Protocol: as §1

C. parapsilosis CP02 [3] = type: cell-based, Candida parapsilosis
Protocol: as §1

C. krusei ATCC 6258 [4] = type: cell-based, Candida krusei
Protocol: as §1

C. albicans NRRL Y-477 [5] = assay: microbe, parasite or virus in culture; type: cell-based, Candida albicans; details: Candida albicans
[6] = system: C. glabrata ATCC 90030, ATCC 2001; assay: microbe, parasite or virus in culture; type: cell-based, Candida glabrata; details: Nakaseomyces glabratus
C. parapsilosis CP02 [7] = assay: microbe, parasite or virus in culture; type: cell-based, Candida parapsilosis; details: Lodderomyces parapsilosis
[8] = system: C. glabrata vaginal isolates; assay: Susceptibility testing of VVC clinical isolates at pH 7 and 4 (CLSI M27-A3); type: cell-based, Candida glabrata; details: for MIC90: Nakaseomyces glabratus
[9] = system: C. parapsilosis vaginal isolates; assay: as above; type: cell-based, Candida parapsilosis
[10] = system: C. tropicalis vaginal isolates; assay: as above; type: cell-based; details: Candida tropicalis
Candida albicans = assay: Broth microdilution of invasive fungal isolates (CLSI M27-A3/M38-A2); type: cell-based
Candida parapsilosis = assay: as above; type: cell-based; details: 92 isolates
Candida tropicalis = assay: as above; type: cell-based
Candida orthopsilosis = assay: as above; type: cell-based; details: 10 isolates
[11] = system: Cryptococcus neoformans var. grubii; assay: as above; type: cell-based; details: 19 isolates
Aspergillus fumigatus = assay: Broth microdilution of invasive fungal isolates (CLSI M27-A3/M38-A2), MEC; type: cell-based; details: 56 isolates
C. albicans NRRL Y-477 [12] = assay: Broth microdilution MIC (CLSI), Examples 3 and 4; details: Candida albicans
Protocol: Antifungal susceptibility testing. […] MIC assays were performed in triplicate.

C. krusei ATCC 6258 [13] = assay: Broth microdilution MIC (CLSI), Examples 3 and 4; details: Pichia kudriavzevii, ATCC6258, 24 h, read-out: Broth MIC
Protocol: Antifungal susceptibility testing. Candida strains were cultured aerobically at 35° C. on SDA plates or in RPMI 1640 broth (pH 7.0). […] MIC assays were performed in triplicate.

[14] = SDA, minimum concentration to cleanly inhibit growth
[15] = replicate plates 1-3, listed as CMP1

## CCCCCOc1ccc(-c2ccc(-c3ccc(C(=O)N[C@H]4C[C@@H](O)[C@@H](OCC[N+](C)(C)C)NC(=O)[C@@H]5[C@@H](O)[C@@H](C)CN5C(=O)[C@H]([C@@H](C)O)NC(=O)[C@H]([C@H](O)[C@@H](O)c5ccc(O)cc5)NC(=O)[C@@H]5C[C@@H](O)CN5C(=O)[C@H]([C@@H](C)O)NC4=O)cc3)cc2)cc1 [Compound 1] ({pTerphenylCO(4''-OnC5H11)}-[Orn(4R-OH,5R-OCH2CH2NMe3+)]T[Hyp][hTyr(3S-OH,4S-OH)]T[Pro(3S-OH,4S-Me)]; lactam 1-C)
C. albicans NRRL Y-477 [1]
  Median mutation frequency: 5.00E−08
C. albicans NRRL Y-477 [1]; [14]
  Plate concentration: 0.06 µg/mL
C. albicans NRRL Y-477 [1]; [15]
  Freq. (replicate mutation frequency): 5.00E−08 and 2.27E−08 and 5.47E−08
[2]; ATCC 2001
  Median mutation frequency: 3.16E−08
  Freq. (replicate mutation frequency): 3.16E−08 and 3.79E−08 and 1.17E−08
  Plate concentration: 0.25 µg/mL
[2]; ATCC 90030
  Median mutation frequency: 1.35E−08
  Freq. (replicate mutation frequency): 3.52E−08 and 1.26E−08 and 1.35E−08
  Plate concentration: 0.25 µg/mL
C. parapsilosis CP02 [3]
  Median mutation frequency: 2.08E−08
C. parapsilosis CP02 [3]; [14]
  Plate concentration: 8 µg/mL
C. parapsilosis CP02 [3]; [15]
  Freq. (replicate mutation frequency): 2.08E−08 (2×) and 9.62E−09
C. krusei ATCC 6258 [4]
  Median mutation frequency: 3.86E−09
C. krusei ATCC 6258 [4]; [14]
  Plate concentration: 0.25 µg/mL
C. krusei ATCC 6258 [4]; [15]
  Freq. (replicate mutation frequency): 1.54E−08 and 3.51E−09 and 3.86E−09
C. albicans NRRL Y-477 [5]; NRRLY477, 48 h, NRRL Y-477 P20-1, selecting drug ANID, Fks1 HS1 S645Y, 48 h read
  MIC: 2 µg/mL
C. albicans NRRL Y-477 [5]; NRRLY477, 48 h, NRRL Y-477 P20-1, selecting drug CMP1, 48 h read
  MIC: 0.25 µg/mL
C. albicans NRRL Y-477 [5]; NRRLY477, NRRL Y-477 P20-1, selecting drug CAS
  MIC: 0.03 µg/mL
C. albicans NRRL Y-477 [5]; NRRLY477, read-out: MIC P20, NRRL Y-477, total population after 20 passages with the selecting drug, MIC of selecting drug
  MIC: 0.25 µg/mL
[6]; 48 h, ATCC 90030 P20-1, selecting drug ANID, Fks2 HS1 D666I, 48 h read
  MIC: 2 µg/mL
[6]; ATCC 2001 P20-2, selecting drug CAS
  MIC: 2 µg/mL
[6]; ATCC 2001 P20-2, selecting drug CMP1
  MIC: 1 µg/mL
[6]; ATCC 90030 P20-2, selecting drug CMP1
  MIC: 1 µg/mL
[6]; read-out: MIC P20, ATCC 2001, total population after 20 passages with the selecting drug, MIC of selecting drug
  MIC: 1 µg/mL
[6]; read-out: MIC P20, ATCC 90030, total population after 20 passages with the selecting drug, MIC of selecting drug
  MIC: 1 µg/mL
C. parapsilosis CP02 [7]; CP02, CP02 P20-1, selecting drug ANID
  MIC: 4 µg/mL
C. parapsilosis CP02 [7]; CP02, CP02 P20-1, selecting drug CMP1
  MIC: 4 µg/mL
C. parapsilosis CP02 [7]; CP02, read-out: MIC P20, CP02, total population after 20 passages with the selecting drug, MIC of selecting drug
  MIC: 4 µg/mL
[8]; 21 VVC isolates, 24 h, pH 4
  Number of isolates at MIC 0.125 μg/mL: 2
  Number of isolates at MIC 0.25 μg/mL: 3
  Number of isolates at MIC 0.5 μg/mL: 15
  Number of isolates at MIC 2 μg/mL: 1
[8]; 21 VVC isolates, 24 h, pH 7
  Number of isolates at MIC 0.06 μg/mL: 3
  Number of isolates at MIC 0.125 μg/mL: 17
  Number of isolates at MIC 2 μg/mL: 1
[8]; 21 VVC isolates, 48 h, pH 4
  Number of isolates at MIC 0.25 μg/mL: 2
  Number of isolates at MIC 0.5 μg/mL: 8
  Number of isolates at MIC 1 μg/mL: 9
  Number of isolates at MIC 2 μg/mL: 2
[8]; 21 VVC isolates, 48 h, pH 7
  Number of isolates at MIC 0.06 μg/mL: 2
  Number of isolates at MIC 0.125 μg/mL: 16
  Number of isolates at MIC 0.25 μg/mL: 1
  Number of isolates at MIC 0.5 μg/mL: 1
  Number of isolates at MIC 2 μg/mL: 1
[8]; 24 h, pH 4
  MIC90: 0.5 µg/mL
[8]; 24 h, pH 7
  MIC90: 0.125 µg/mL
[8]; 48 h, pH 4
  MIC90: 1 µg/mL
[8]; 48 h, pH 7
  MIC90: 0.25 µg/mL
[9]; 24 h, pH 4
  MIC90: 2 µg/mL
[9]; 24 h, pH 7
  MIC90: 2 µg/mL
[9]; 48 h, pH 4
  MIC90: 2 µg/mL
[9]; 48 h, pH 7
  MIC90: 4 µg/mL
[10]; 24 h, pH 4
  MIC90: 0.5 µg/mL
[10]; 24 h, pH 7
  MIC90: 0.125 µg/mL
[10]; 48 h, pH 4
  MIC90: 2 µg/mL
[10]; 48 h, pH 7
  MIC90: 0.125 µg/mL
Candida albicans; 251 isolates
  Cumulative % of isolates inhibited at MIC 0.015 μg/mL: (49.4) %
  Cumulative % of isolates inhibited at MIC 0.03 μg/mL: (85.7) %
  Cumulative % of isolates inhibited at MIC 0.06 μg/mL: (96.8) %
  Cumulative % of isolates inhibited at MIC 0.12 μg/mL: (100.0) %
  Cumulative % of isolates inhibited at MIC ≤0.008 μg/mL: (6.8) %
  Number of isolates inhibited at MIC 0.015 μg/mL: 107
  Number of isolates inhibited at MIC 0.03 μg/mL: 91
  Number of isolates inhibited at MIC 0.06 μg/mL: 28
  Number of isolates inhibited at MIC 0.12 μg/mL: 8
  Number of isolates inhibited at MIC ≤0.008 μg/mL: 17
Candida albicans; Candida albicans, 251 isolates, read-out: MIC50
  MIC50: 0.03 µg/mL
Candida albicans; Candida albicans, 251 isolates, read-out: MIC90
  MIC90: 0.06 µg/mL
Candida albicans; all 251 isolates
  concentration at which all isolates were inhibited: ≤ 0.12 µg/mL
Candida parapsilosis
  Cumulative % of isolates inhibited at MIC 0.5 μg/mL: (23.9) %
  Cumulative % of isolates inhibited at MIC 1 μg/mL: (62.0) %
  Cumulative % of isolates inhibited at MIC 2 μg/mL: (98.9) %
  Cumulative % of isolates inhibited at MIC 4 μg/mL: (100.0) %
  Number of isolates inhibited at MIC 0.5 μg/mL: 22
  Number of isolates inhibited at MIC 1 μg/mL: 35
  Number of isolates inhibited at MIC 2 μg/mL: 34
  Number of isolates inhibited at MIC 4 μg/mL: 1
Candida parapsilosis; Lodderomyces parapsilosis, read-out: MIC50
  MIC50: 1 µg/mL
Candida parapsilosis; Lodderomyces parapsilosis, read-out: MIC90
  MIC90: 2 µg/mL
Candida tropicalis; 51 isolates
  Cumulative % of isolates inhibited at MIC 0.015 μg/mL: (56.9) %
  Cumulative % of isolates inhibited at MIC 0.03 μg/mL: (88.2) %
  Cumulative % of isolates inhibited at MIC 0.06 μg/mL: (100.0) %
  Cumulative % of isolates inhibited at MIC ≤0.008 μg/mL: (3.9) %
  Number of isolates inhibited at MIC 0.015 μg/mL: 27
  Number of isolates inhibited at MIC 0.03 μg/mL: 16
  Number of isolates inhibited at MIC 0.06 μg/mL: 6
  Number of isolates inhibited at MIC ≤0.008 μg/mL: 2
Candida tropicalis; Candida tropicalis, 51 isolates, read-out: MIC50
  MIC50: 0.015 µg/mL
Candida tropicalis; Candida tropicalis, 51 isolates, read-out: MIC90
  MIC90: 0.06 µg/mL
Candida tropicalis; n=51
  concentration at which all isolates were inhibited: ≤ 0.06 µg/mL
Candida orthopsilosis
  Cumulative % of isolates inhibited at MIC 0.12 μg/mL: (10.0) %
  Cumulative % of isolates inhibited at MIC 0.25 μg/mL: (40.0) %
  Cumulative % of isolates inhibited at MIC 0.5 μg/mL: (50.0) %
  Cumulative % of isolates inhibited at MIC 1 μg/mL: (90.0) %
  Cumulative % of isolates inhibited at MIC 2 μg/mL: (100.0) %
  Number of isolates inhibited at MIC 0.12 μg/mL: 1
  Number of isolates inhibited at MIC 0.25 μg/mL: 3
  Number of isolates inhibited at MIC 0.5 μg/mL: 1
  Number of isolates inhibited at MIC 1 μg/mL: 4
  Number of isolates inhibited at MIC 2 μg/mL: 1
Candida orthopsilosis; Lodderomyces orthopsilosis, read-out: MIC50
  MIC50: 0.5 µg/mL
Candida orthopsilosis; Lodderomyces orthopsilosis, read-out: MIC90
  MIC90: 1 µg/mL
[11]
  Cumulative % of isolates inhibited at MIC 8 μg/mL: (31.6) %
  Cumulative % of isolates inhibited at MIC >8 μg/mL: (100.0) %
  Number of isolates inhibited at MIC 8 μg/mL: 6
  Number of isolates inhibited at MIC >8 μg/mL: 13
[11]; Cryptococcus neoformans, read-out: MIC50
  MIC50: 8 µg/mL
[11]; Cryptococcus neoformans, read-out: MIC90
  MIC90: 8 µg/mL
Aspergillus fumigatus
  Cumulative % of isolates inhibited at MEC 0.015 μg/mL: (92.9) %
  Cumulative % of isolates inhibited at MEC 0.03 μg/mL: (100.0) %
  Cumulative % of isolates inhibited at MEC ≤0.008 μg/mL: (41.1) %
  Number of isolates inhibited at MEC 0.015 μg/mL: 29
  Number of isolates inhibited at MEC 0.03 μg/mL: 4
  Number of isolates inhibited at MEC ≤0.008 μg/mL: 23
C. albicans NRRL Y-477 [12]; NRRLY477
  MIC: 0.25 µg/mL
C. albicans NRRL Y-477 [12]; NRRLY477, 24 h, read-out: Broth MIC
  MIC: 0.03 µg/mL
C. krusei ATCC 6258 [13]
  MIC: 0.06 µg/mL

From US20180256673A1, “METHODS FOR TREATING FUNGAL INFECTIONS” (priority 2015, published 2018)
